Data reported in ChEMBL document CHEMBL1208753, “Peptide deformylase inhibitors with retro-amide scaffold: synthesis and structure-activity relationships” (Bioorg Med Chem Lett, 2010).
In brackets after ≈: the same amount, converted by molar mass.

How the values were obtained:
Peptide deformylase = target: T1, Peptide deformylase (Pseudomonas aeruginosa (strain ATCC 15692 / PAO1 / 1C / PRS 101 / LMG12228), UniProt Q9I7A8); assay: Inhibition of Pseudomonas aeruginosa Peptide deformylase by fluorescence analysis
T1 sequence (Q9I7A8 whole entry): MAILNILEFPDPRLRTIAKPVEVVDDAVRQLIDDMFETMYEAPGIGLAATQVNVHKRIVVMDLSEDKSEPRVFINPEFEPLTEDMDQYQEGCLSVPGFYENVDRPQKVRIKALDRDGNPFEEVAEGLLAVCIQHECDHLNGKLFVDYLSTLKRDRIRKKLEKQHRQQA

Streptococcus pneumoniae = assay: Antimicrobial activity against Streptococcus pneumoniae ATCC 6305 after 48 hrs; type: functional; conditions: ATCC 6305, 48 h
Moraxella catarrhalis = assay: Antimicrobial activity against Moraxella catarrhalis ATCC 43617 after 48 hrs; type: functional; conditions: ATCC 43617, 48 h
Haemophilus influenzae = assay: Antimicrobial activity against Haemophilus influenzae ATCC 51907 after 24 hrs; type: functional; conditions: ATCC 51907, 24 h

IC50 (Peptide deformylase) | MIC (Streptococcus pneumoniae) | MIC (Moraxella catarrhalis) | MIC (Haemophilus influenzae) | Compound
15 nM | 12.5 µg/mL (≈ 30.8 µM) | 1.6 µg/mL (≈ 3.94 µM) | 6.3 µg/mL (≈ 15.5 µM) | COc1ccccc1NC(=O)N[C@H](C(=O)N(CC(=O)NO)CC1CC1)C(C)(C)C
13 nM | 0.4 µg/mL (≈ 0.951 µM) | 0.1 µg/mL (≈ 0.238 µM) | 0.4 µg/mL (≈ 0.951 µM) | COc1ccccc1NC(=O)N[C@H](C(=O)N(CC(=O)NO)CC1CCC1)C(C)(C)C
13 nM | 0.8 µg/mL (≈ 1.9 µM) | 0.1 µg/mL (≈ 0.238 µM) | 0.8 µg/mL (≈ 1.9 µM) | COc1ccccc1NC(=O)N[C@H](C(=O)N(CC(=O)NO)CC1CCCC1)C(C)C
42 nM | 6.3 µg/mL (≈ 16.1 µM) | 12.5 µg/mL (≈ 31.9 µM) | 12.5 µg/mL (≈ 31.9 µM) | COc1ccccc1NC(=O)N[C@@H](C)C(=O)N(CC(=O)NO)CC1CCCC1
61 nM | 25 µg/mL (≈ 53.4 µM) | 12.5 µg/mL (≈ 26.7 µM) | 25 µg/mL (≈ 53.4 µM) | COc1ccccc1NC(=O)N[C@@H](Cc1ccccc1)C(=O)N(CC(=O)NO)CC1CCCC1
32 nM | 3.2 µg/mL (≈ 7.36 µM) | 0.2 µg/mL (≈ 0.46 µM) | 1.6 µg/mL (≈ 3.68 µM) | CC[C@@H](C)[C@H](NC(=O)Nc1ccccc1OC)C(=O)N(CC(=O)NO)CC1CCCC1
36 nM | 3.2 µg/mL (≈ 7.36 µM) | 0.8 µg/mL (≈ 1.84 µM) | 3.2 µg/mL (≈ 7.36 µM) | COc1ccccc1NC(=O)N[C@@H](CC(C)C)C(=O)N(CC(=O)NO)CC1CCCC1
116 nM | 200 µg/mL (≈ 478 µM) | 50 µg/mL (≈ 119 µM) | 200 µg/mL (≈ 478 µM) | COc1ccccc1NC(=O)N1CCC[C@H]1C(=O)N(CC(=O)NO)CC1CCCC1
52 nM | 100 µg/mL (≈ 281 µM) | 0.8 µg/mL (≈ 2.25 µM) | 50 µg/mL (≈ 141 µM) | CC(C)C(=O)N[C@H](C(=O)N(CC(=O)NO)CC1CCCC1)C(C)(C)C
41 nM | 12.5 µg/mL (≈ 32.1 µM) | 0.1 µg/mL (≈ 0.257 µM) | 3.2 µg/mL (≈ 8.22 µM) | CC(C)(C)[C@H](NC(=O)c1ccccc1)C(=O)N(CC(=O)NO)CC1CCCC1
19 nM | 12.5 µg/mL (≈ 31.6 µM) | 0.2 µg/mL (≈ 0.506 µM) | 1.6 µg/mL (≈ 4.05 µM) | CC(C)(C)[C@H](NC(=O)c1cccs1)C(=O)N(CC(=O)NO)CC1CCCC1
11 nM | 50 µg/mL (≈ 119 µM) | 0.1 µg/mL (≈ 0.238 µM) | 0.4 µg/mL (≈ 0.953 µM) | COc1ccccc1C(=O)N[C@H](C(=O)N(CC(=O)NO)CC1CCCC1)C(C)(C)C
17 nM | 3.2 µg/mL (≈ 7.91 µM) | 0.1 µg/mL (≈ 0.247 µM) | 0.4 µg/mL (≈ 0.989 µM) | CC(C)(C)[C@H](NC(=O)Nc1ccccc1)C(=O)N(CC(=O)NO)CC1CCCC1
47 nM | 12.5 µg/mL (≈ 31.5 µM) | 0.8 µg/mL (≈ 2.02 µM) | 12.5 µg/mL (≈ 31.5 µM) | CC(C)(C)[C@H](NC(=O)N1CCCCC1)C(=O)N(CC(=O)NO)CC1CCCC1
50 nM | 50 µg/mL (≈ 119 µM) | 0.4 µg/mL (≈ 0.956 µM) | 25 µg/mL (≈ 59.7 µM) | CN(C(=O)N[C@H](C(=O)N(CC(=O)NO)CC1CCCC1)C(C)(C)C)c1ccccc1
28 nM | 25 µg/mL (≈ 62.7 µM) | 0.2 µg/mL (≈ 0.502 µM) | 12.5 µg/mL (≈ 31.4 µM) | CC(C)(C)[C@H](NC(=O)N1CCOCC1)C(=O)N(CC(=O)NO)CC1CCCC1
55 nM | 6.3 µg/mL (≈ 15.3 µM) | 0.1 µg/mL (≈ 0.244 µM) | 6.3 µg/mL (≈ 15.3 µM) | CC(C)(C)[C@H](NC(=O)NC1CCCCC1)C(=O)N(CC(=O)NO)CC1CCCC1
42 nM | 6.3 µg/mL (≈ 16.3 µM) | 0.1 µg/mL (≈ 0.259 µM) | 6.3 µg/mL (≈ 16.3 µM) | COCCNC(=O)N[C@H](C(=O)N(CC(=O)NO)CC1CCCC1)C(C)(C)C
54 nM | 12.5 µg/mL (≈ 30.8 µM) | 0.1 µg/mL (≈ 0.247 µM) | 0.8 µg/mL (≈ 1.97 µM) | CC(C)(C)[C@H](NC(=O)Nc1ccccn1)C(=O)N(CC(=O)NO)CC1CCCC1
65 nM | 25 µg/mL (≈ 61.7 µM) | 0.2 µg/mL (≈ 0.493 µM) | 6.3 µg/mL (≈ 15.5 µM) | CC(C)(C)[C@H](NC(=O)Nc1ccncc1)C(=O)N(CC(=O)NO)CC1CCCC1
49 nM | 6.3 µg/mL (≈ 15.5 µM) | 0.1 µg/mL (≈ 0.247 µM) | 3.2 µg/mL (≈ 7.89 µM) | CC(C)(C)[C@H](NC(=O)Nc1cccnc1)C(=O)N(CC(=O)NO)CC1CCCC1
29 nM | 0.2 µg/mL (≈ 0.46 µM) | 0.1 µg/mL (≈ 0.23 µM) | 0.2 µg/mL (≈ 0.46 µM) | COc1ccccc1NC(=O)N[C@H](C(=O)N(CC(=O)NO)CC1CCCC1)C(C)(C)C
31 nM | 0.4 µg/mL (≈ 0.892 µM) | 0.1 µg/mL (≈ 0.223 µM) | 0.8 µg/mL (≈ 1.78 µM) | COc1ccccc1NC(=O)N[C@H](C(=O)N(CCC1CCCC1)CC(=O)NO)C(C)(C)C
21 nM | 0.8 µg/mL (≈ 1.89 µM) | 0.1 µg/mL (≈ 0.237 µM) | 0.8 µg/mL (≈ 1.89 µM) | COc1ccccc1NC(=O)N[C@H](C(=O)N(CCC(C)C)CC(=O)NO)C(C)(C)C
